From ChEMBL document CHEMBL1201862, “PubChem BioAssay data set” (2004)
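Step 1: Grow cells in 96-well plates. Step 2: Expose to compound for 48 hours at 5 concentrations. Step 3: Interpolate endpoints linearly; if unreached, use highest concentration. The concentration for 50% growth inhibition is given as GI50.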 Calls of active or inactive are those of the source. Cut-off read from the data, not from the text of the source: active = GI50 up to about 1.1 µM and inactive = higher.

Experiments:
Assay in all cases: NCI anticancer screen, dose series, 48 h
786-0 = system: 786-0
A549 = system: A549
CAKI-1 = system: CAKI-1
CCRF-CEM = system: CCRF-CEM
DU-145 = system: DU-145
EKVX = system: EKVX
HCC 2998 = system: HCC 2998
HCT-15 = system: HCT-15
HL-60 = system: HL-60
HOP-62 = system: HOP-62
HT-29 = system: HT-29
IGROV-1 = system: IGROV-1
K562 = system: K562
KM12 = system: KM12
LOX IMVI = system: LOX IMVI
M14 = system: M14
MCF7 = system: MCF7
MDA-MB-231 = system: MDA-MB-231
MDA-N = system: MDA-N
MOLT-4 = system: MOLT-4
Malme-3M = system: Malme-3M
NCI-H23 = system: NCI-H23
OVCAR-8 = system: OVCAR-8
PC-3 = system: PC-3
RPMI-8226 = system: RPMI-8226
RXF 393 = system: RXF 393
SF-268 = system: SF-268
SF-295 = system: SF-295
SK-MEL-28 = system: SK-MEL-28
SK-MEL-5 = system: SK-MEL-5
SK-OV-3 = system: SK-OV-3
SN12C = system: SN12C
SNB-75 = system: SNB-75
SR = system: SR
SW-620 = system: SW-620
T47D = system: T47D
TK-10 = system: TK-10
UACC-257 = system: UACC-257
UACC-62 = system: UACC-62
COLO 205 = system: COLO 205
A498 = system: A498
ACHN = system: ACHN
HCT-116 = system: HCT-116
HOP-92 = system: HOP-92
Hs-578T = system: Hs-578T
MDA-MB-435 = system: MDA-MB-435
NCI-H226 = system: NCI-H226
NCI-H460 = system: NCI-H460
NCI-H522 = system: NCI-H522
NCI/ADR-RES = system: NCI/ADR-RES
OVCAR-3 = system: OVCAR-3
OVCAR-4 = system: OVCAR-4
OVCAR-5 = system: OVCAR-5
SF-539 = system: SF-539
U-251 = system: U-251
UO-31 = system: UO-31

What does the source list for `CSc1nc(C)c(CCOC(C)=O)c(N=P(c2ccccc2)(c2ccccc2)c2ccccc2)n1`?
GI50 (786-0): > 10 µM (inactive); GI50 (A549): 5.12 µM (inactive); GI50 (CAKI-1): 8.26 µM (inactive); GI50 (CCRF-CEM): 3.89 µM (inactive); GI50 (DU-145): > 10 µM (inactive); GI50 (EKVX): > 10 µM (inactive); GI50 (HCC 2998): > 10 µM (inactive); GI50 (HCT-15): 4.89 µM; GI50 (HL-60): 2.82 µM (inactive); GI50 (HOP-62): 7.94 µM (inactive); GI50 (HT-29): 4.07 µM (inactive); GI50 (IGROV-1): > 10 µM (inactive); GI50 (K562): 3.42 µM (inactive); GI50 (KM12): 3.72 µM (inactive); GI50 (LOX IMVI): 1.33 µM (inactive); GI50 (M14): 5.61 µM (inactive); GI50 (MCF7): 3.49 µM (inactive); GI50 (MDA-MB-231): 6.56 µM (inactive); GI50 (MDA-N): 4.05 µM (inactive); GI50 (MOLT-4): 2.11 µM (inactive); GI50 (Malme-3M): > 10 µM (inactive); GI50 (NCI-H23): 3.77 µM (inactive); GI50 (OVCAR-8): 4.88 µM (inactive); GI50 (PC-3): 2.53 µM (inactive); GI50 (RPMI-8226): 3.14 µM (inactive); GI50 (RXF 393): 2.89 µM (inactive); GI50 (SF-268): 4.12 µM (inactive); GI50 (SF-295): > 10 µM (inactive); GI50 (SK-MEL-28): > 10 µM (inactive); GI50 (SK-MEL-5): 6.81 µM (inactive); GI50 (SK-OV-3): > 10 µM (inactive); GI50 (SN12C): 6.78 µM (inactive); GI50 (SNB-75): 4.28 µM (inactive); GI50 (SR): 2.54 µM (inactive); GI50 (SW-620): 4.97 µM (inactive); GI50 (T47D): 4.24 µM (inactive); GI50 (TK-10): > 10 µM (inactive); GI50 (UACC-257): 6.18 µM (inactive); GI50 (UACC-62): 5.75 µM (inactive)

Which GI50 (786-0) does the source give for `N#Cc1ccc(/N=C(/NCC(=O)O)Nc2ccc3ccccc3c2)cc1` here?
Its GI50 is > 10 µM (inactive).

And the GI50 (A549)?
Its GI50 is > 10 µM (inactive).

What about the GI50 (CAKI-1) of the same molecule?
The GI50 was > 10 µM (inactive).

And the GI50 (CCRF-CEM)?
The GI50 was > 10 µM (inactive).

What about the GI50 (COLO 205) of the same molecule?
Its GI50 is > 10 µM (inactive).

What about the GI50 (DU-145) of the same molecule?
The GI50 was > 10 µM (inactive).

What about the GI50 (EKVX) of the same molecule?
Its GI50 is > 10 µM (inactive).

What about the GI50 (HCC 2998) of the same molecule?
Its GI50 is > 10 µM (inactive).

What about the GI50 (HCT-15) of the same molecule?
Its GI50 is over 10 µM.

And the GI50 (HL-60)?
The GI50 was > 10 µM (inactive).

What about the GI50 (HOP-62) of the same molecule?
The GI50 was > 10 µM (inactive).

And the GI50 (HT-29)?
Its GI50 is > 10 µM (inactive).

And the GI50 (IGROV-1)?
The GI50 was > 10 µM (inactive).

And the GI50 (K562)?
Its GI50 is > 10 µM (inactive).

And the GI50 (KM12)?
The GI50 was > 10 µM (inactive).

And the GI50 (M14)?
Its GI50 is > 10 µM (inactive).

What about the GI50 (MCF7) of the same molecule?
Its GI50 is > 10 µM (inactive).

What about the GI50 (MDA-MB-231) of the same molecule?
The GI50 was > 10 µM (inactive).

And the GI50 (MDA-N)?
Its GI50 is > 10 µM (inactive).

And the GI50 (MOLT-4)?
Its GI50 is > 10 µM (inactive).

What about the GI50 (Malme-3M) of the same molecule?
The GI50 was > 10 µM (inactive).

And the GI50 (NCI-H23)?
The GI50 was > 10 µM (inactive).

What about the GI50 (OVCAR-8) of the same molecule?
The GI50 was > 10 µM (inactive).

And the GI50 (PC-3)?
Its GI50 is > 10 µM (inactive).

And the GI50 (RPMI-8226)?
Its GI50 is > 10 µM (inactive).

What about the GI50 (RXF 393) of the same molecule?
The GI50 was > 10 µM (inactive).

What about the GI50 (SF-268) of the same molecule?
The GI50 was > 10 µM (inactive).

And the GI50 (SF-295)?
Its GI50 is > 10 µM (inactive).

And the GI50 (SK-MEL-28)?
The GI50 was > 10 µM (inactive).

What about the GI50 (SK-MEL-5) of the same molecule?
Its GI50 is > 10 µM (inactive).

What about the GI50 (SK-OV-3) of the same molecule?
The GI50 was > 10 µM (inactive).

What about the GI50 (SN12C) of the same molecule?
Its GI50 is > 10 µM (inactive).

What about the GI50 (SNB-75) of the same molecule?
Its GI50 is > 10 µM (inactive).

What about the GI50 (SR) of the same molecule?
Its GI50 is > 10 µM (inactive).

And the GI50 (SW-620)?
Its GI50 is > 10 µM (inactive).

What about the GI50 (T47D) of the same molecule?
Its GI50 is > 10 µM (inactive).

And the GI50 (TK-10)?
The GI50 was > 10 µM (inactive).

What about the GI50 (UACC-257) of the same molecule?
Its GI50 is > 10 µM (inactive).

What about the GI50 (UACC-62) of the same molecule?
The GI50 was > 10 µM (inactive).

Which GI50 (786-0) does the source give for `O=C(CC(C(=O)c1ccsc1)c1ccc2c(c1)OCO2)c1ccccc1` (stereo unspecified) here?
Its GI50 is > 100 µM (inactive).

And the GI50 (A498)?
The GI50 was > 100 µM (inactive).

What about the GI50 (A549) of the same molecule?
The GI50 was 8.17 µM (inactive).

What about the GI50 (ACHN) of the same molecule?
Its GI50 is > 100 µM (inactive).

And the GI50 (CAKI-1)?
Its GI50 is > 100 µM (inactive).

What about the GI50 (CCRF-CEM) of the same molecule?
Its GI50 is > 100 µM (inactive).

And the GI50 (COLO 205)?
The GI50 was > 100 µM (inactive).

And the GI50 (DU-145)?
The GI50 was > 100 µM (inactive).

And the GI50 (EKVX)?
The GI50 was > 100 µM (inactive).

What about the GI50 (HCC 2998) of the same molecule?
Its GI50 is > 100 µM (inactive).

And the GI50 (HCT-116)?
Its GI50 is > 100 µM (inactive).

And the GI50 (HCT-15)?
The GI50 was over 100 µM.

And the GI50 (HL-60)?
The GI50 was > 100 µM (inactive).

And the GI50 (HOP-62)?
Its GI50 is > 100 µM (inactive).

What about the GI50 (HOP-92) of the same molecule?
The GI50 was > 100 µM (inactive).

And the GI50 (HT-29)?
Its GI50 is > 100 µM (inactive).

What about the GI50 (Hs-578T) of the same molecule?
Its GI50 is > 100 µM (inactive).

What about the GI50 (IGROV-1) of the same molecule?
Its GI50 is > 100 µM (inactive).

And the GI50 (K562)?
Its GI50 is > 100 µM (inactive).

And the GI50 (KM12)?
The GI50 was > 100 µM (inactive).

What about the GI50 (LOX IMVI) of the same molecule?
The GI50 was > 100 µM (inactive).

And the GI50 (M14)?
The GI50 was > 100 µM (inactive).

And the GI50 (MCF7)?
Its GI50 is 88.3 µM (inactive).

What about the GI50 (MDA-MB-435) of the same molecule?
Its GI50 is > 100 µM (inactive).

And the GI50 (MDA-N)?
The GI50 was > 100 µM (inactive).

And the GI50 (MOLT-4)?
Its GI50 is > 100 µM (inactive).

What about the GI50 (NCI-H226) of the same molecule?
Its GI50 is > 100 µM (inactive).

And the GI50 (NCI-H23)?
Its GI50 is 0.209 µM (active).

And the GI50 (NCI-H460)?
The GI50 was 94 µM (inactive).

What about the GI50 (NCI-H522) of the same molecule?
The GI50 was 59 µM (inactive).

What about the GI50 (NCI/ADR-RES) of the same molecule?
Its GI50 is > 100 µM (inactive).

And the GI50 (OVCAR-3)?
The GI50 was > 100 µM (inactive).

And the GI50 (OVCAR-4)?
Its GI50 is > 100 µM (inactive).

What about the GI50 (OVCAR-5) of the same molecule?
The GI50 was > 100 µM (inactive).

What about the GI50 (OVCAR-8) of the same molecule?
Its GI50 is > 100 µM (inactive).

And the GI50 (RPMI-8226)?
Its GI50 is > 100 µM (inactive).

What about the GI50 (RXF 393) of the same molecule?
The GI50 was > 100 µM (inactive).

And the GI50 (SF-268)?
The GI50 was > 100 µM (inactive).

And the GI50 (SF-295)?
The GI50 was > 100 µM (inactive).

What about the GI50 (SF-539) of the same molecule?
Its GI50 is > 100 µM (inactive).

What about the GI50 (SK-MEL-28) of the same molecule?
The GI50 was > 100 µM (inactive).

What about the GI50 (SK-MEL-5) of the same molecule?
Its GI50 is 95.9 µM (inactive).

And the GI50 (SK-OV-3)?
The GI50 was > 100 µM (inactive).

And the GI50 (SN12C)?
Its GI50 is > 100 µM (inactive).

What about the GI50 (SNB-75) of the same molecule?
Its GI50 is > 100 µM (inactive).

What about the GI50 (SR) of the same molecule?
The GI50 was > 100 µM (inactive).

What about the GI50 (SW-620) of the same molecule?
The GI50 was > 100 µM (inactive).

What about the GI50 (T47D) of the same molecule?
The GI50 was 51.6 µM (inactive).

What about the GI50 (TK-10) of the same molecule?
Its GI50 is > 100 µM (inactive).

And the GI50 (U-251)?
The GI50 was > 100 µM (inactive).

What about the GI50 (UACC-257) of the same molecule?
The GI50 was > 100 µM (inactive).

And the GI50 (UACC-62)?
Its GI50 is > 100 µM (inactive).

And the GI50 (UO-31)?
Its GI50 is > 100 µM (inactive).
